What was measured:
Experiment in all cases: biochemical
Set-up in all cases: KINOMEscan active-site-directed competition binding panel, 468 kinases, percent of DMSO control at 1 uM
Conditions in all cases: KINOMEscan binding, percent of DMSO control; read-out: Ctrl%
MAP3K1 = MAP3K1 (Homo sapiens, UniProt Q13233)
PKN2 = PKN2 (Homo sapiens, UniProt Q16513)
PIK3CA(Q546K) = PIK3CA(Q546K) (Homo sapiens, UniProt P42336, Q546K)
ERK5 = molecular target: T1, ERK5 (Homo sapiens, UniProt Q13164)
T1 construct: gene MAPK7

CSNK1G1 = CSNK1G1 (Homo sapiens, UniProt Q9HCP0)
Chain of CSNK1G1 (Q9HCP0 whole entry): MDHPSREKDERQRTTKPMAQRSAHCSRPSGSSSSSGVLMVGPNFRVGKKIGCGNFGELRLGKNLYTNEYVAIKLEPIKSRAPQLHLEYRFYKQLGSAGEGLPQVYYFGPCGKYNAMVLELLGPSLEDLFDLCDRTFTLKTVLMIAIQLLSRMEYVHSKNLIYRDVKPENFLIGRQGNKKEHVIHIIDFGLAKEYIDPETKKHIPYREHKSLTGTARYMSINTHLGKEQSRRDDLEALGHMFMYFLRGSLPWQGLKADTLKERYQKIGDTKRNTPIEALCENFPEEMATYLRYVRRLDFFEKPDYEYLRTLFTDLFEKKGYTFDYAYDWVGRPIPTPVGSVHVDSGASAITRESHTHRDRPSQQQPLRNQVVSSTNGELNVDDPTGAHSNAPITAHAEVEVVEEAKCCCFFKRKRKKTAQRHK

RIOK1 = RIOK1 (Homo sapiens, UniProt Q9BRS2)
GCN2(Kin.Dom.2,S808G) = molecular target: T2, GCN2(Kin.Dom.2,S808G) (Homo sapiens, UniProt Q9P2K8, S808G)
T2 construct: gene EIF2AK4; Kin.Dom.2

FLT1 = FLT1 (Homo sapiens, UniProt P17948)
DAPK2 = DAPK2 (Homo sapiens, UniProt Q9UIK4)
PAK2 = PAK2 (Homo sapiens, UniProt Q13177)
PIK3CA = PIK3CA (Homo sapiens, UniProt P42336)
Chain of PIK3CA (P42336 whole entry): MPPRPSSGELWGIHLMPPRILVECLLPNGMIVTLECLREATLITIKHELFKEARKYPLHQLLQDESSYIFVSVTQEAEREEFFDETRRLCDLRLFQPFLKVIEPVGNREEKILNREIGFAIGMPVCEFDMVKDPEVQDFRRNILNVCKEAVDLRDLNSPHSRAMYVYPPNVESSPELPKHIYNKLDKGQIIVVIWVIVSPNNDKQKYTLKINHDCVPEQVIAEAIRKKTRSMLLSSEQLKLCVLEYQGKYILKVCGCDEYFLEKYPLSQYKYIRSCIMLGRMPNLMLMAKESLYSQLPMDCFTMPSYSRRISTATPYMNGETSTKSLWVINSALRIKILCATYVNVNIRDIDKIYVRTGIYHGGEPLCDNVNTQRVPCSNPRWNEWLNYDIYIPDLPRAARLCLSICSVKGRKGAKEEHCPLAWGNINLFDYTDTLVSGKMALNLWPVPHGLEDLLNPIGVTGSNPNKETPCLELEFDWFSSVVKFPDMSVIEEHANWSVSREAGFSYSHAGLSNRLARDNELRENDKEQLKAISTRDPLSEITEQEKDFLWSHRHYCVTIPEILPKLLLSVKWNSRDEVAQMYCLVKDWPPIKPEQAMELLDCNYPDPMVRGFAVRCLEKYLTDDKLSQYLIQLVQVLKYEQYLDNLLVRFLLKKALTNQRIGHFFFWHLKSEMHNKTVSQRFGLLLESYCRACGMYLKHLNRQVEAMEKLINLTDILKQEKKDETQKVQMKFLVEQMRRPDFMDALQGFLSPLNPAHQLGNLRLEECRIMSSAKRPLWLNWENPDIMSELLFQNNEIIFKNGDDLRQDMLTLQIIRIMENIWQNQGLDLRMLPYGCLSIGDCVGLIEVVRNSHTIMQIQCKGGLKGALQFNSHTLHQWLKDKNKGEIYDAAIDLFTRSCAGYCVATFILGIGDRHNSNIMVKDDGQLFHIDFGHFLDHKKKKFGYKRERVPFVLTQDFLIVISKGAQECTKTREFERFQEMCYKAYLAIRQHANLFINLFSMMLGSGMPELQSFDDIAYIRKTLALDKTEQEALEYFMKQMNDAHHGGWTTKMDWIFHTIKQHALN

[1] = molecular target: T3, ABL1(Q252H)-phosphorylated (Homo sapiens, UniProt P00519, Q252H)
T3 construct: phosphorylated

ITK = ITK (Homo sapiens, UniProt Q08881)
NEK11 = NEK11 (Homo sapiens, UniProt Q8NG66)
DMPK = DMPK (Homo sapiens, UniProt Q09013)
Chain of DMPK (Q09013 whole entry): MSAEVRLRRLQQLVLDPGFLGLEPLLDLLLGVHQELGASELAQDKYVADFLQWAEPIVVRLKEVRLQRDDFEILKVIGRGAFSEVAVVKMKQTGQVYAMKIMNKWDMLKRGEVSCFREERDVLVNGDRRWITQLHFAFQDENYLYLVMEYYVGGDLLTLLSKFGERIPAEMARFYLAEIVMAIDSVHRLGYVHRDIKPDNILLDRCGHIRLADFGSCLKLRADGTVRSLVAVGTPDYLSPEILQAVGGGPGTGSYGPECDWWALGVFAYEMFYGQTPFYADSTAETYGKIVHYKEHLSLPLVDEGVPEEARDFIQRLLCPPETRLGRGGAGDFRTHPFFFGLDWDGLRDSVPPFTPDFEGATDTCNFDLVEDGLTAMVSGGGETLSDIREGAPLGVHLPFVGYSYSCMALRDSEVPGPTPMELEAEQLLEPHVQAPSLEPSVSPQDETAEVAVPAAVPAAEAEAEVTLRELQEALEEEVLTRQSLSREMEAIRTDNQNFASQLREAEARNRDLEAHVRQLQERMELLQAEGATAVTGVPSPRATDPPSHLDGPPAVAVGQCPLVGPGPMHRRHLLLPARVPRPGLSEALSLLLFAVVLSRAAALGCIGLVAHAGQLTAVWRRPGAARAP

CDC2L5 = molecular target: T4, CDC2L5 (Homo sapiens, UniProt Q14004)
T4 construct: gene CDK13

EGFR(L858R) = EGFR(L858R) (Homo sapiens, UniProt P00533, L858R)
PIK4CB = molecular target: T5, PIK4CB (Homo sapiens, UniProt Q9UBF8)
T5 construct: gene PI4KB

MYLK2 = MYLK2 (Homo sapiens, UniProt Q9H1R3)
MAP4K3 = MAP4K3 (Homo sapiens, UniProt Q8IVH8)
Chain of MAP4K3 (Q8IVH8 whole entry): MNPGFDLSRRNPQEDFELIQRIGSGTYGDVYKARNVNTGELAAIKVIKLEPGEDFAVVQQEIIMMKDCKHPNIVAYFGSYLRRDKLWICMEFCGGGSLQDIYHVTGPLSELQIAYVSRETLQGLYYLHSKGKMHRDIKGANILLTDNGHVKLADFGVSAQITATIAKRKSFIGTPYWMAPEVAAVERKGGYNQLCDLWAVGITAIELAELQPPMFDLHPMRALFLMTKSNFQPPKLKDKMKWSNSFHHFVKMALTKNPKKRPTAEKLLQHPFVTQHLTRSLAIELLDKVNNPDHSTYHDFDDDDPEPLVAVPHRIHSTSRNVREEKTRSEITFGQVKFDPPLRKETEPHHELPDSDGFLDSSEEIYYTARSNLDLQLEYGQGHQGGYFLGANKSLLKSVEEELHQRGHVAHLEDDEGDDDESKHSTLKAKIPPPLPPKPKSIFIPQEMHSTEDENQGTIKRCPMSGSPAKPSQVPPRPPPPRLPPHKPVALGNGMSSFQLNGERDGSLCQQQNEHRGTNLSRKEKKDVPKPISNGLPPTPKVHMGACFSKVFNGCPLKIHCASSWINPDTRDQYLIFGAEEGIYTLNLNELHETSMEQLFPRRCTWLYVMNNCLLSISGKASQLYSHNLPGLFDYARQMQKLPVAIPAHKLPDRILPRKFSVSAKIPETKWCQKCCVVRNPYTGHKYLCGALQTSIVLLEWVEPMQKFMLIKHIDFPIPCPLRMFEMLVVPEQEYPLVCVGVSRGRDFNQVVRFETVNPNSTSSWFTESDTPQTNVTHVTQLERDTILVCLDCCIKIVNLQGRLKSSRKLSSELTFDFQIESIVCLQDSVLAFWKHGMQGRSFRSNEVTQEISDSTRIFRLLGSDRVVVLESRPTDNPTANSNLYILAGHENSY

KIT(D816H) = KIT(D816H) (Homo sapiens, UniProt P10721, D816H)
NEK3 = NEK3 (Homo sapiens, UniProt P51956)
Chain of NEK3 (P51956 whole entry): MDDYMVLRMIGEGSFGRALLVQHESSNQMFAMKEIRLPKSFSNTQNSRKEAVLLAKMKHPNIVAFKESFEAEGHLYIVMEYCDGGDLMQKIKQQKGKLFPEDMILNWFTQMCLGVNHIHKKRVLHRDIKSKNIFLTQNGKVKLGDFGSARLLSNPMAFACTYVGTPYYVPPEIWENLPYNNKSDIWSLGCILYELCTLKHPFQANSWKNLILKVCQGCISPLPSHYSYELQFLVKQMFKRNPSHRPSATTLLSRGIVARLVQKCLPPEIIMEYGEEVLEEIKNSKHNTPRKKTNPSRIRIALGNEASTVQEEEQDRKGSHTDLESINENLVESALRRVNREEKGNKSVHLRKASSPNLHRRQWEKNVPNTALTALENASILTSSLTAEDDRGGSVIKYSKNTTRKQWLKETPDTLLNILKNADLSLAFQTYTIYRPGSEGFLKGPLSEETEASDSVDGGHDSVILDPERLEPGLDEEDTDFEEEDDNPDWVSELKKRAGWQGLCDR

ADCK4 = molecular target: T6, ADCK4 (Homo sapiens, UniProt Q96D53)
T6 construct: gene COQ8B

RIPK1 = RIPK1 (Homo sapiens, UniProt Q13546)

Chain of MAP3K1 (Q13233 whole entry): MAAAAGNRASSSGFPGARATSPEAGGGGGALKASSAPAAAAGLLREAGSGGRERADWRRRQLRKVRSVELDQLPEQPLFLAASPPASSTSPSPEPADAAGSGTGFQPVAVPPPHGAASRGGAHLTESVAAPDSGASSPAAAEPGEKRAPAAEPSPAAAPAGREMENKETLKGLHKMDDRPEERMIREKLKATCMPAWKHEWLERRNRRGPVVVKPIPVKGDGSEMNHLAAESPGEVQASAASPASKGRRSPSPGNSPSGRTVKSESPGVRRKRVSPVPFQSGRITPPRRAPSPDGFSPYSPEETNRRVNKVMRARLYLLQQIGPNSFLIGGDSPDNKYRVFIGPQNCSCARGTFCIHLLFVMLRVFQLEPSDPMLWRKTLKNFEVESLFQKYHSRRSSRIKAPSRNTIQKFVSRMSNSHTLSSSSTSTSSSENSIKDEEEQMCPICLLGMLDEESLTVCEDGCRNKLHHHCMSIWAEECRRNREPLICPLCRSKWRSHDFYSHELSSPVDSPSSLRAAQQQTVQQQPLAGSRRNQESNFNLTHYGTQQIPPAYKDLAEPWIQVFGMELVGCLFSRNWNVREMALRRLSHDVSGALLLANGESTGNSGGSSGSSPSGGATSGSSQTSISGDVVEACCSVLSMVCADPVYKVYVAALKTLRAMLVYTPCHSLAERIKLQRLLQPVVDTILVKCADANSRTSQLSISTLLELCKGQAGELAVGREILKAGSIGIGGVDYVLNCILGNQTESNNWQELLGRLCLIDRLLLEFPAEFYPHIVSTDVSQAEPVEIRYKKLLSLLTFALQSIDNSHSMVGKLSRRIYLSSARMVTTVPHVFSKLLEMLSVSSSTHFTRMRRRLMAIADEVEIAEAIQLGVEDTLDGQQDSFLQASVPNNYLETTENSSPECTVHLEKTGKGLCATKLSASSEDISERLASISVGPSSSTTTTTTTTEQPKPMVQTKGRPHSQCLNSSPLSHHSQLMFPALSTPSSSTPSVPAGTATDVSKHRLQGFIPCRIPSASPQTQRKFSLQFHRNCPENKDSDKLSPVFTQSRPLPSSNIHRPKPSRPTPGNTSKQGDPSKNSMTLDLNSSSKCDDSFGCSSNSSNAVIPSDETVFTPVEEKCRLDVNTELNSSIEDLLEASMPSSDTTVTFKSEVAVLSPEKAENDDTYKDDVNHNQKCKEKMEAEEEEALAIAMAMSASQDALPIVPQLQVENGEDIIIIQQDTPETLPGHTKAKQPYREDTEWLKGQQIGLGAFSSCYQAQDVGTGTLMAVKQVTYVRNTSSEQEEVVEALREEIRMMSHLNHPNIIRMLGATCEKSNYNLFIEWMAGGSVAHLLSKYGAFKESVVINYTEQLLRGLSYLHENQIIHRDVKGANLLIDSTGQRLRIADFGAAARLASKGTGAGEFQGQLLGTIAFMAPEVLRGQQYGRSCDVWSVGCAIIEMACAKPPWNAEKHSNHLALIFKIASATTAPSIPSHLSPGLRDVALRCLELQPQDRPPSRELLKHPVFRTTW
Chain of PIK3CA(Q546K) (P42336 whole entry Q546K): as the sequence (P42336 whole entry) above, with Q546K counted along it

Cc1ccc(NC(=O)c2cccc(C(F)(F)F)c2)cc1Nc1cc(-c2cccnc2)nc2[nH]ccc12 [HZX-02-059]
remaining binding at 1 µM (MAP3K1): 56%
remaining binding at 1 µM (PKN2): 100%
remaining binding at 1 µM (PIK3CA(Q546K)): 66%
remaining binding at 1 µM (ERK5): 99%
remaining binding at 1 µM (CSNK1G1): 83%
remaining binding at 1 µM (RIOK1): 98%
remaining binding at 1 µM (GCN2(Kin.Dom.2,S808G)): 100%
remaining binding at 1 µM (FLT1): 96%
remaining binding at 1 µM (DAPK2): 100%
remaining binding at 1 µM (PAK2): 88%
remaining binding at 1 µM (PIK3CA): 100%
remaining binding at 1 µM [1]: 61%
remaining binding at 1 µM (ITK): 100%
remaining binding at 1 µM (NEK11): 100%
remaining binding at 1 µM (DMPK): 81%
remaining binding at 1 µM (CDC2L5): 100%
remaining binding at 1 µM (EGFR(L858R)): 87%
remaining binding at 1 µM (PIK4CB): 78%
remaining binding at 1 µM (MYLK2): 100%
remaining binding at 1 µM (MAP4K3): 97%
remaining binding at 1 µM (KIT(D816H)): 100%
remaining binding at 1 µM (NEK3): 54%
remaining binding at 1 µM (ADCK4): 91%
remaining binding at 1 µM (RIPK1): 100%

From PMC8799717, “Pharmacological targeting PIKfyve and tubulin as an effective treatment strategy for double-hit lymphoma” (Cell Death Discovery, 2022)
